17 compounds from patent US7307061B2, “β-peptoids with antimicrobial activity” (E.I. du Pont de Nemours and Company, priority 2004, dated 2007) can be followed below.

Each structure is given as a SMILES string. In brackets after ≈: the same amount, converted by molar mass.

The experiment deals with E. coli ATCC 25922. Format: cell-based. The conditions noted are these: ATCC 25922, 24 h. The method, then: The minimal inhibitory concentration (MIC) for the peptoids was determined in sterile microtiter plates in a final volume of 200 μl using Trypticase Soy Broth (TSB; Difco Laboratories, Detroit, Mich.) as the growth medium. Serial two-fold dilutions of the peptoid stock were made in the plate wells such that concentrations ranged from 512 to 2 μg/ml in a volume of 100 μL. Each well was then inoculated with 100 μl of a dilute suspension of bacteria in TSB yielding a final concentration of 1×10^4 bacteria/ml. The final peptoid concentrations ranged from 256 μg/ml to […]. The assay plates were incubated at 37° C. for 24 hours inside a Bioscreen C microtitre plate reader (Thermo Labsystems; Vantaa, Finland). Optical Density (OD) of the medium at 600 nm was recorded every 20 minutes to monitor cell growth. The lowest concentration of peptoid preventing bacterial growth during the 24 hr period was defined as the MIC.
Table 1. Antibacterial activity of peptoids against E. coli ATCC 25922. The general structure for each of the Compounds 20 to 41 is represented by Formula V: […]
Regarding `CC(=O)N(CCC(=O)N(CCC(=O)N(CCCN(C)C)CCC(=O)N(CCC(=O)N(CCC(=O)N(CCCN(C)C)CCC(=O)N(CCC(=O)N(CCC(=O)N(CCCN(C)C)CCC(=O)NC(CCCCN)C(N)=O)CC(C)C)Cc1ccccc1)CC(C)C)Cc1ccccc1)CC(C)C)Cc1ccccc1` (centres unmarked) [Compound 23, Ac(Bz-Ibu-DMAP)3-Lys-NH2], the MIC (commonly the least concentration at which growth counts as inhibited) is 512 µg/mL (≈ 337 µM).
With `CC(=O)N(CCC(=O)N(CCC(=O)N(CCN)CCC(=O)N(CCC(=O)N(CCC(=O)N(CCN)CCC(=O)N(CCC(=O)N(CCC(=O)N(CCN)CCC(=O)N(CCC(=O)N(CCC(=O)N(CCN)CCC(=O)N(CCC(=O)N(CCC(=O)N(CCN)CCC(=O)NC(CCCCN)C(N)=O)CC(C)C)CC(C)C)CC(C)C)CC(C)C)CC(C)C)CC(C)C)CC(C)C)CC(C)C)CC(C)C)CC(C)C` (stereo not drawn) [Compound 36, Ac(Ibu-Ibu-Aminoethyl)5-Lys-NH2] the figure was 256 µg/mL (≈ 126 µM); with `CC(=O)N(CCC(=O)N(CCC(=O)N(CCCN(C)C)CCC(=O)N(CCC(=O)N(CCC(=O)N(CCCN(C)C)CCC(=O)N(CCC(=O)N(CCC(=O)N(CCCN(C)C)CCC(=O)N(CCC(=O)N(CCC(=O)N(CCCN(C)C)CCC(=O)N(CCC(=O)N(CCC(=O)N(CCCN(C)C)CCC(=O)NC(CCCCN)C(N)=O)CC(C)C)Cc1ccccc1)CC(C)C)Cc1ccccc1)CC(C)C)Cc1ccccc1)CC(C)C)Cc1ccccc1)CC(C)C)Cc1ccccc1` (centres unmarked) [Compound 25, Ac(Bz-Ibu-DMAP)5-Lys-NH2], 128 µg/mL (≈ 53.1 µM).
Regarding `CC(=O)N(CCC(=O)N(CCC(=O)N(CCCN(C)C)CCC(=O)N(CCC(=O)N(CCC(=O)N(CCCN(C)C)CCC(=O)N(CCC(=O)N(CCC(=O)N(CCCN(C)C)CCC(=O)N(CCC(=O)N(CCC(=O)N(CCCN(C)C)CCC(=O)NC(CCCCN)C(N)=O)CC(C)C)Cc1ccccc1)CC(C)C)Cc1ccccc1)CC(C)C)Cc1ccccc1)CC(C)C)Cc1ccccc1` (centres unmarked) [Compound 24, Ac(Bz-Ibu-DMAP)4-Lys-NH2], the MIC worked out at 128 µg/mL (≈ 65.1 µM).
With `CC(=O)N(CCC(=O)N(CCC(=O)N(CCCCN)CCC(=O)N(CCC(=O)N(CCC(=O)N(CCCCN)CCC(=O)N(CCC(=O)N(CCC(=O)N(CCCCN)CCC(=O)NC(CCCCN)C(N)=O)CC(C)C)CC(C)C)CC(C)C)CC(C)C)CC(C)C)CC(C)C` (stereo not drawn) [Compound 38, Ac(Ibu-Ibu-Aminobutyl)3-Lys-NH2] the figure was greater than 512 µg/mL; with `CC(=O)N(CCC(=O)N(CCN)CCC(=O)N(CCC(=O)N(CCN)CCC(=O)N(CCC(=O)N(CCN)CCC(=O)N(CCC(=O)N(CCN)CCC(=O)N(CCC(=O)N(CCN)CCC(=O)N(CCC(=O)N(CCN)CCC(=O)N(CCC(=O)N(CCN)CCC(=O)N(CCC(=O)N(CCN)CCC(=O)NC(CCCCN)C(N)=O)CC(C)C)CC(C)C)CC(C)C)CC(C)C)CC(C)C)CC(C)C)CC(C)C)CC(C)C` (centres unmarked) [Compound 32, Ac(Ibu-Aminoethyl)8-Lys-NH2], 256 µg/mL (≈ 121 µM).
`CC(=O)N(CCC(=O)N(CCCN(C)C)CCC(=O)N(CCC(=O)N(CCCN(C)C)CCC(=O)N(CCC(=O)N(CCCN(C)C)CCC(=O)N(CCC(=O)N(CCCN(C)C)CCC(=O)N(CCC(=O)N(CCCN(C)C)CCC(=O)NC(CCCCN)C(N)=O)CC(C)C)CC(C)C)CC(C)C)CC(C)C)CC(C)C` (centres unmarked) [Compound 27, Ac(Ibu-DMAP)5-Lys-NH2] gave an MIC greater than 512 µg/mL.
Take `CC(=O)N(CCC(=O)N(CCCN(C)C)CCC(=O)N(CCC(=O)N(CCC(=O)N(CCCN(C)C)CCC(=O)N(CCC(=O)N(CCC(=O)N(CCCN(C)C)CCC(=O)N(CCC(=O)N(CCC(=O)N(CCCN(C)C)CCC(=O)N(CCC(=O)N(CCC(=O)N(CCCN(C)C)CCC(=O)N(CCC(=O)N(CCC(=O)N(CCCN(C)C)CCC(=O)N(CCC(=O)NC(CCCCN)C(N)=O)CC(C)C)Cc1ccccc1)CC(C)C)Cc1ccccc1)CC(C)C)Cc1ccccc1)CC(C)C)Cc1ccccc1)CC(C)C)Cc1ccccc1)CC(C)C)Cc1ccccc1` (centres unmarked) [Compound 22, Ac(Bz-DMAP-Ibu)6-Lys-NH2]: the MIC came to 128 µg/mL (≈ 44.8 µM).
For the compound `CC(=O)N(CCC(=O)N(CCC(=O)N(CCN)CCC(=O)N(CCC(=O)N(CCC(=O)N(CCN)CCC(=O)N(CCC(=O)N(CCC(=O)N(CCN)CCC(=O)N(CCC(=O)N(CCC(=O)N(CCN)CCC(=O)NC(CCCCN)C(N)=O)CC(C)C)CC(C)C)CC(C)C)CC(C)C)CC(C)C)CC(C)C)CC(C)C)CC(C)C` (stereo not drawn) [Compound 34, Ac(Ibu-Ibu-Aminoethyl)4-Lys-NH2], the MIC was 256 µg/mL (≈ 154 µM).
As for `CC(=O)N(CCC(=O)N(CCC(=O)N(CCN)CCC(=O)N(CCC(=O)N(CCC(=O)N(CCN)CCC(=O)N(CCC(=O)N(CCC(=O)N(CCN)CCC(=O)NC(CCCCN)C(N)=O)CC(C)C)CC(C)C)CC(C)C)CC(C)C)CC(C)C)CC(C)C` (stereo not drawn) [Compound 33, Ac(Ibu-Ibu-Aminoethyl)3-Lys-NH2], the MIC was greater than 512 µg/mL.
Take `CC(=O)N(CCC(=O)N(CCCN(C)C)CCC(=O)N(CCC(=O)N(CCC(=O)N(CCCN(C)C)CCC(=O)N(CCC(=O)N(CCC(=O)N(CCCN(C)C)CCC(=O)N(CCC(=O)N(CCC(=O)N(CCCN(C)C)CCC(=O)N(CCC(=O)N(CCC(=O)N(CCCN(C)C)CCC(=O)N(CCC(=O)NC(CCCCN)C(N)=O)CC(C)C)Cc1ccccc1)CC(C)C)Cc1ccccc1)CC(C)C)Cc1ccccc1)CC(C)C)Cc1ccccc1)CC(C)C)Cc1ccccc1` (centres unmarked) [Compound 21, Ac(Bz-DMAP-Ibu)5-Lys-NH2]: the MIC came out at 128 µg/mL (≈ 53.1 µM).
With `CC(=O)N(CCC(=O)N(CCCN(C)C)CCC(=O)N(CCC(=O)N(CCCN(C)C)CCC(=O)N(CCC(=O)N(CCCN(C)C)CCC(=O)N(CCC(=O)N(CCCN(C)C)CCC(=O)N(CCC(=O)N(CCCN(C)C)CCC(=O)N(CCC(=O)N(CCCN(C)C)CCC(=O)N(CCC(=O)N(CCCN(C)C)CCC(=O)N(CCC(=O)N(CCCN(C)C)CCC(=O)NC(CCCCN)C(N)=O)CC(C)C)CC(C)C)CC(C)C)CC(C)C)CC(C)C)CC(C)C)CC(C)C)CC(C)C` (centres unmarked) [Compound 29, Ac(Ibu-DMAP)8-Lys-NH2], the MIC was greater than 512 µg/mL.
As to `CC(=O)N(CCC(=O)N(CCCCN)CCC(=O)N(CCC(=O)N(CCCCN)CCC(=O)N(CCC(=O)N(CCCCN)CCC(=O)NC(CCCCN)C(N)=O)CC(C)C)CC(C)C)CC(C)C` (centres unmarked) [Compound 41, Ac(Ibu-Aminobutyl)3-Lys-NH2], the MIC was 512 µg/mL (≈ 514 µM).
The compound `CC(=O)N(CCC(=O)N(CCN)CCC(=O)N(CCC(=O)N(CCN)CCC(=O)N(CCC(=O)N(CCN)CCC(=O)N(CCC(=O)N(CCN)CCC(=O)N(CCC(=O)N(CCN)CCC(=O)N(CCC(=O)N(CCN)CCC(=O)NC(CCCCN)C(N)=O)CC(C)C)CC(C)C)CC(C)C)CC(C)C)CC(C)C)CC(C)C` (centres unmarked) [Compound 26, Ac(Ibu-Aminoethyl)6-Lys-NH2] had an MIC of 128 µg/mL (≈ 78.3 µM).
`CC(=O)N(CCC(=O)N(CCC(=O)N(CCCCN)CCC(=O)N(CCC(=O)N(CCC(=O)N(CCCCN)CCC(=O)NC(CCCCN)C(N)=O)CC(C)C)CC(C)C)CC(C)C)CC(C)C` (stereo not drawn) [Compound 37, Ac(Ibu-Ibu-Aminobutyl)2-Lys-NH2] returned an MIC greater than 512 µg/mL.
To `CC(=O)N(CCC(=O)N(CCN)CCC(=O)N(CCC(=O)N(CCN)CCC(=O)N(CCC(=O)N(CCN)CCC(=O)N(CCC(=O)N(CCN)CCC(=O)N(CCC(=O)N(CCN)CCC(=O)NC(CCCCN)C(N)=O)CC(C)C)CC(C)C)CC(C)C)CC(C)C)CC(C)C` (centres unmarked) [Compound 30, Ac(Ibu-Aminoethyl)5-Lys-NH2] belongs greater than 256 µg/mL.
`CC(=O)N(CCC(=O)N(CCCN(C)C)CCC(=O)N(CCC(=O)N(CCC(=O)N(CCCN(C)C)CCC(=O)N(CCC(=O)N(CCC(=O)N(CCCN(C)C)CCC(=O)N(CCC(=O)NC(CCCCN)C(N)=O)CC(C)C)Cc1ccccc1)CC(C)C)Cc1ccccc1)CC(C)C)Cc1ccccc1` (centres unmarked) [Compound 20, Ac(Bz-DMAP-Ibu)3-Lys-NH2] yielded an MIC of 128 µg/mL (≈ 84.1 µM).
